System: mda-6 (WAF1/CIP1/SDI1)
Test: Induction of mda-6 (WAF1/CIP1/SDI1) expression in HL-60 cells (Northern blotting, RT-PCR)
Assay type: cell-based, human
Details: TPA 3 nM, Vit D3 400 nM, RA 1 μM, DMSO 1%
Protocol: HL-60 cells were originally provided by Dr. R. C. Gallo (National Cancer Institute, Bethesda, Md.) (Collins et al., 1978; Huberman & Callaham, 1979). HL-60 cells designated HL-525 were derived by cloning HL-60 cells after subculturing 102 times in the presence of increasing concentrations (up to 3 μM) of TPA at 5- to 8-day intervals (Homma et al., 1986; Mitchell et al., 1986). […] Prior to the experiments described in this study, the HL-525 cells were subcultured more than 20 times in the absence of TPA. Cells were grown in 100-mm tissue culture dishes in RPMI 1640 medium supplemented with 20% fetal bovine serum, penicillin (100 units/ml) and streptomycin (100 μg/ml) (Grand Island Biological Co., NY) at 37° C. in an atmosphere of 5% CO2 in air in a humidified incubator. The 1,25-(OH)2D3(Vit D3) and TPA were dissolved in a final concentration of 0.01% DMSO, and all-trans retinoic acid (RA) was dissolved in 0.1% DMSO in culture medium. […]
RNA was purified by centrifugation through a CsC1 cushion as described by Chirgwin et al. (1979). […] Following hybridization, the filters were washed and exposed for autoradiography (Reddy et al., 1991; Su et al., 1991; Jiang et al., 1992). mda-6 and GAPDH gene expression were also determined by reverse transcription-polymerase chain reaction (RT-PCR) as described (Adollahi et al. 1991; Lin et al., 1994). […]

CCCCCCCCCCCCCC(=O)O[C@@H]1[C@@H](C)[C@@]2(O)[C@@H](C=C(CO)C[C@]3(O)C(=O)C(C)=C[C@@H]23)[C@@H]2C(C)(C)[C@]12OC(C)=O [TPA, 12-O-tetradecanoyl-phorbol-13-acetate]
time of treatment at which mda-6 expression is induced: ≤ 2 h

From patent US7507792B2, “MDA-7 proteins and methods of use thereof” (The Trustees of Columbia University In The City of New York, priority 1993, dated 2009)
